Measured values from patent US20090186868A1, “Taxane Compound Having Azetidine Ring Structure” (Daiichi Sankyo Company Limited, priority 2005, published 2009).
In brackets after ≈: the same amount, converted by molar mass. Where two headings read alike, the source gives them in different places.

Experiments:
[1] = system: NCI-H460 (human lung cancer cell line); experiment: Anti-cell activity (MTT) against human tumor cell line NCI-H460; type: cell-based; conditions: 72 h, NCI-H460, cultured three days, read-out: NCI-H460 (GI50 value, ng/mL)
Description: (§1) Three types of human tumor cell lines (all of the cells were obtained from American Type Culture Collection) were seeded on 96-well microplates as follows.
(§2) NCI-H460 (human lung cancer cell line): 5.0×10^2 cells/190 μL/well HCT-15 (P glycoprotein (P-gp) expressing human colon cancer cell line, J. Natl. Cancer Inst., 2001, 93:1234-1245): 1.0×10^3 cells/190 μL/well HCT116 (human colon cancer cell line): 1.0×10^3 cells/190 μL/well On the next day, each test compound was dissolved in 100% dimethyl sulfoxide (DMSO) at a concentration of 10 mg/mL. This solution was diluted with 0.01% Cremophor EL-PBS(−) (Cremophor EL: Sigma Chemical Co., St. Louis, Mo., USA, PBS: Invitrogen Corp., Carlsbad, Calif., USA), and 10 μL of the diluted solution was added to each well (final concentration: 100 to 0.000381 ng/mL). The cells were cultured for three days, and then […] of a 5 mg/mL solution of 3-(4,5-dimethylthiazol-2-yl)-2,5-diphenyl-2H-tetrazolium bromide (MTT, Sigma Chemical Co.) was added to each well. The cells were further cultured for 4 hours, and then the medium was removed by centrifugation. By adding 150 μL of DMSO to each well, the produced formazan product was dissolved. The absorbance of the solution was measured at 540 nm. The drug concentration suppressing cell proliferation of the drug addition group to 50% of the cell proliferation of the drug free group (GI50 value, ng/mL) was calculated, and used as an index of anti-cell activity.

[2] = system: HCT-15 (P glycoprotein (P-gp) expressing human colon cancer cell line); experiment: Anti-cell activity (MTT) against human tumor cell line HCT-15; type: cell-based; conditions: 72 h, HCT-15 (P-gp expressing), cultured three days, read-out: HCT-15 (GI50 value, ng/mL)
Description: as §1, §2

[3] = system: HCT116 (human colon cancer cell line); experiment: Anti-cell activity (MTT) against human tumor cell line HCT116; type: cell-based; conditions: HCT-116, 72 h, HCT116, cultured three days, read-out: HCT116 (GI50 value, ng/mL)
Description: as §1, §2

B16 melanoma BL6 = experiment: Antitumor effect in mice subcutaneously transplanted with B16 melanoma BL6; type: in vivo, Mice (C57BL/6); conditions: B16 Melanoma BL6, po; MTD/MED
Source text: (§3) Mice (C57BL/6, Charles River Japan) were subcutaneously transplanted with B16 melanoma BL6 (Cancer Res., Poste, G., Fidler, I. J. et al., 1980, 40:1636; Bioorg. Med. Chem. Lett., Takeda, Y. et al., 2003, 13:185-190), or M5076 (obtained from Japanese Foundation for Cancer Research), which is a histiocytoma expressing P-gp. Four days after the transplantation in the case of B16 melanoma BL6, or 8 to 10 days after the transplantation in the case of M5076, each test compound suspended in a 0.5% aqueous solution of carboxymethylcellulose sodium, or dissolved in EtOH:Tween 80:5% glucose=5:5:90 (v/v %) was orally (po) or intravenously (iv) administered to the mice. Ten days after the administration in the case of B16 melanoma BL6, or 8 to 10 days after the administration in the case of M5076, the mice were dissected, and tumor weights were measured. The antitumor effect was calculated in accordance with the following equation.
(§4) [1−(Average tumor weight of compound administration group/average tumor weight of solvent administration group)]×100
(§5) An antitumor effect of 58% or more was considered effective (Int. J. Cancer, 1989, 43:637-44), and the maximum tolerance dose (MTD, maximum dose not causing death, mg/kg) and minimum effective dose (MED, mg/kg) showing effectiveness were obtained, respectively. The therapeutic index was calculated in accordance with the equation: MTD/MED.
(§6) ND means that the test was not performed. The effective dose range means the range of from MED to MTD.

[4] = system: M5076 (histiocytoma expressing P-gp); experiment: Antitumor effect in mice subcutaneously transplanted with M5076; type: in vivo, Mice (C57BL/6); conditions: M5076, po; for Therapeutic index: MTD/MED; for Effective dose range: range from MED to MTD, antitumor effect of 58% or more considered effective
Source text: as §3, §4, §5, §6

[5] = Solubility in first and second solution for disintegration test (Japanese Pharmacopoeia); type: physicochemical; conditions: thermodynamic from solid, 12 hours or longer
Description: Solubility of each compound was determined in the first solution for disintegration test according to Japanese Pharmacopoeia (henceforth referred to as the first solution, solution obtained by adding 7 mL of hydrochloric acid and water to 2.00 g of sodium chloride to dissolve sodium chloride and fill up the solution to 1000 mL, pH 1.2) and the second solution for disintegration test according to Japanese Pharmacopoeia (henceforth referred to as the second solution, solution obtained by adding 118 mL of 0.2 mol/L solution of sodium hydroxide to 6.80 g of potassium dihydrogenphosphate, adding water to the mixture to dissolve potassium dihydrogenphosphate and filling up the solution to 1000 mL, pH 6.8).
Each test compound was dissolved in 100% dimethyl sulfoxide (DMSO) at a concentration of 10 mM, and 50 μL of the solution was lyophilized. The lyophilized test compound was added with 250 μL of the first solution or second solution, and the mixture was stored at room temperature for 12 hours or longer under light shielding, and filtered (0.7 μm). The filtrate was taken in a volume of 90 μL, and added with 50% DMSO (90 μL) to obtain a two-fold diluted solubility sample. The two-fold dilution solubility sample was taken in a volume of 20 μL, and added with 50% DMSO (180 μL) to obtain a […] diluted solubility sample. Solubility of each test sample was determined by quantifying the test compound in the resulting diluted solubility test samples using high-performance liquid chromatography.

[6] = aqueous buffer, second solution for disintegration test, pH 6.8, room temperature, read-out: Solubility (μg/mL) pH 6.8
[7] = simulated gastric fluid, first solution for disintegration test, pH 1.2, room temperature, read-out: Solubility (μg/mL) pH 1.2

Row | Compound | GI50 [1] | GI50 [2] | GI50 [3] | Therapeutic index (B16 melanoma BL6) | Therapeutic index [4] | Effective dose range [4] | solubility [5, 6] | solubility [5, 7]
1 | COC1CN(C[C@@H]2O[C@@H]3C4=C(C)[C@@H](OC(=O)[C@H](O)[C@@H](NC(=O)OC(C)(C)C)c5ncccc5F)C[C@@](O)([C@@H](OC(=O)c5ccccc5)[C@H]5[C@@](C)(CC[C@H]6OC[C@]65OC(C)=O)[C@@H]3O2)C4(C)C)C1 [Example 8, (1S,2S,3R,4S,5R,8R,9S,10R,13S)-4-(Acetoxy)-2-(benzoyloxy)-5,20-epoxy-1-hydroxy-9,10-[(1S)-2-(3-methoxyazetidino)ethylidenedioxy]tax-11-en-13-yl (2R,3S)-3-(tert-butoxycarbonylamino)-3-(3-fluoro-2-pyridyl)-2-hydroxypropionate] | 0.128 ng/mL (≈ 0.000139 µM) | 0.236 ng/mL (≈ 0.000255 µM) | 0.155 ng/mL (≈ 0.000168 µM) | 2.9 | 1.4 | 21.0 to 30.0 mg/kg | 10 µg/mL (≈ 10.8 µM) | 600 µg/mL (≈ 649 µM)
2 | CC(=O)O[C@@]12CO[C@@H]1CC[C@@]1(C)[C@@H]3O[C@H](CN4CC(O)C4)O[C@@H]3C3=C(C)[C@@H](OC(=O)[C@H](O)[C@@H](NC(=O)OC(C)(C)C)c4ccccn4)C[C@@](O)([C@@H](OC(=O)c4ccccc4)[C@@H]12)C3(C)C [Example 5, (1S,2S,3R,4S,5R,8R,9S,10R,13S)-4-(Acetoxy)-2-(benzoyloxy)-5,20-epoxy-1-hydroxy-9,10-[(1S)-2-(3-hydroxyazetidino)ethylidenedioxy]tax-11-en-13-yl (2R,3S)-3-(tert-butoxycarbonylamino)-2-hydroxy-3-(2-pyridyl)propionate] | 0.162 ng/mL (≈ 0.000182 µM) | 8.08 ng/mL (≈ 0.00906 µM) | 0.229 ng/mL (≈ 0.000257 µM) | 6.0 | 1.0 | 30.0 mg/kg | 140 µg/mL (≈ 157 µM) | 1000 µg/mL (≈ 1120 µM)
